According to ChEMBL document CHEMBL1124487, “Acid-sensitive latent inhibitors for proteolytic enzymes: synthesis and characterization” (J Med Chem, 1989):

Assays:
[1] = biological target: T1, Papain (Carica papaya) (UniProt P00784)
T1 sequence (whole entry): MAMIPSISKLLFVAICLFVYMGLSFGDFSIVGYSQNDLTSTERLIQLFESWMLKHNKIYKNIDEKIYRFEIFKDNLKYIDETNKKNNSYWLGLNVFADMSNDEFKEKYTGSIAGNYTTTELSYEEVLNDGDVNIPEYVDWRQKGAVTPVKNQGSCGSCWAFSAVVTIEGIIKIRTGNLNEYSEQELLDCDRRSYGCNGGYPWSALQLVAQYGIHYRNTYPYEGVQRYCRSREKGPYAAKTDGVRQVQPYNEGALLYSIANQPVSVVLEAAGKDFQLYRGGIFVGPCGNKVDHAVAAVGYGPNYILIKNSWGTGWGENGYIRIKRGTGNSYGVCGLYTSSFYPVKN
Description: Initial rate of reaction between papain and BzArg p-nitro-anilide in the presence of 400 uM at pH 7

[2] = biological target: T2, Papain (Carica papaya, UniProt P00784); assay: Inhibition of papain-catalyzed hydrolysis of BzArg p-nitroanilide by compound at pH 5.5
T2 sequence (P00784 whole entry): T1 sequence (whole entry)

[3] = biological target: T2, Papain; assay: Inhibition of papain-catalyzed hydrolysis of BzArg p-nitroanilide by compound at pH 7
[4] = biological target: T2, Papain; assay: Inhibition of papain-catalyzed hydrolysis of BzArg p-nitroanilide by compound at pH 5

Question: Which Kix [1] does the source give for `CC(=O)N[C@@H](C)C(=O)N/N=C/CNC(=O)c1ccccc1` here?
Answer: The Kix was 1 mM.

Question: And the Ki [2]?
Answer: The Ki was 25 µM.

Question: And the Ki [3]?
Answer: Its Ki is 30 µM.

Question: What about the Ki [4] of the same compound?
Answer: Its Ki is 38 µM.
